The nature of the data set: Measurement of log P values by HPLC on reversed phase columns (methods [a] pH 2.3, [b] pH 2.7, [c] pH 7.8). Format: physicochemical. Conditions: HPLC on reversed phase columns, method [b], pH 2.7. As to the method: Measurement of log P-Values:
Measurement of log P Values was Performed According EEC Directive 79/831 Annex V.A8 by HPLC (High Performance Liquid
Chromatography) on reversed phase columns with the following methods: ^[a] Measurement was done at pH 2.3 with 0.1% phosphoric acid and acetonitrile as eluent with a linear gradient from 10% acetonitrile to 95% acetonitrile. ^[b] measurement of LC-MS was done at pH 2.7 with 0.1% formic acid in water and with acetonitrile (contains 0.1% formic acid) as eluent with a linear gradient from 10% acetonitrile to 95% acetonitrile. ^[c] Measurement with LC-MS was done at pH 7.8 with 0.001 molar ammonium hydrogen carbonate solution in water as eluent with a linear gradient from 10% acetonitrile to 95% acetonitrile.
Calibration was done with linear alkan-2-ones (with 3 to 16 carbon atoms) with known log P-values (measurement of log P values using retention times with linear interpolation between successive alkanones). Lambda-max-values were determined using UV-spectra from 200 nm to 400 nm and the peak values of the chromatographic signals.

Molecules are shown by their SMILES.

Regarding `O=C(N[C@@H]1CCC[C@@H]1c1ccc(F)c(F)c1)c1ncccc1C(F)(F)F` (relative stereo) [Example 90], the logP was 3.31^[b].
`Cn1cc(C(=O)N[C@@H]2CCC[C@@H]2c2ccc(F)c(F)c2)c(C(F)(F)F)c1` (relative stereo) [Example 91]: the logP is 3.27^[b].
On to `Cn1cc(C(=O)N[C@@H]2CCC[C@@H]2c2ccc(F)c(F)c2)c(C(F)(F)F)n1` (relative stereo) [Example 92], for which the logP is 2.98^[b].
As for `O=C(N[C@@H]1CCC[C@@H]1c1ccc(F)c(F)c1)c1sccc1C(F)(F)F` (relative stereo) [Example 93], the figure is 3.63^[b]; as for `O=C(N[C@@H]1CCC[C@@H]1c1ccc(F)c(F)c1)c1ccccc1Br` (relative stereo) [Example 94], 3.35^[b]; as for `O=C(N[C@@H]1CCC[C@@H]1c1ccc(F)c(F)c1)c1ccccc1OC(F)(F)F` (relative stereo) [Example 95], 3.76^[b].
With `O=C(N[C@@H]1CCC[C@@H]1c1ccc(F)c(F)c1)c1sccc1Br` (relative stereo) [Example 96], the logP was 3.79^[b].
As for `Nc1nc(C(F)(F)F)c(C(=O)N[C@@H]2CCC[C@@H]2c2ccc(F)c(F)c2)s1` (relative stereo) [Example 97], the figure is 2.82^[b].
Under `O=C(N[C@@H]1CCC[C@@H]1c1ccc(F)c(F)c1)c1ccccc1Cc1ccccc1` (relative stereo) [Example 98] stands 4.26^[b].
Under `Cn1cc(C(=O)N[C@@H]2CCC[C@@H]2c2ccc(F)c(F)c2)c(I)n1` (relative stereo) [Example 99] stands 2.75^[b].
On to `Cn1ccc(I)c1C(=O)N[C@@H]1CCC[C@@H]1c1ccc(F)c(F)c1` (relative stereo) [Example 100], for which the logP is 3.83^[b].
For `O=C(N[C@@H]1CCC[C@@H]1c1ccc(F)c(F)c1)c1sccc1I` (relative stereo) [Example 101], the logP was 3.79^[b].
In the case of `Cc1oncc1C(=O)N[C@@H]1CCC[C@H]1c1ccc(F)c(F)c1` (relative stereo) [Example 102], the logP was 2.82^[b].
As for `Cc1cccnc1C(=O)N[C@@H]1CCC[C@H]1c1ccc(F)c(F)c1` (relative stereo) [Example 103], the figure is 3.33^[b]; as for `Cc1ncncc1C(=O)N[C@@H]1CCC[C@H]1c1ccc(F)c(F)c1` (relative stereo) [Example 104], 2.21^[b].
Take `O=C(N[C@@H]1CCC[C@H]1c1ccc(F)c(F)c1)c1ccccc1F` (relative stereo) [Example 105]: the logP was 3.35^[b].
As for `O=C(N[C@@H]1CCC[C@H]1c1ccc(F)c(F)c1)c1cccnc1F` (relative stereo) [Example 106], the logP is 2.80^[b].
Consider `O=C(N[C@@H]1CCC[C@H]1c1ccc(F)c(F)c1)c1ccncc1F` (relative stereo) [Example 107], for which the logP is 2.62^[b].
`Cc1ncc(C(=O)N[C@@H]2CCC[C@H]2c2ccc(F)c(F)c2)s1` (relative stereo) [Example 108]: the logP is 2.64^[b].
As for `Cc1nnsc1C(=O)N[C@@H]1CCC[C@H]1c1ccc(F)c(F)c1` (relative stereo) [Example 109], the figure is 2.92^[b].
Under `N#Cc1ncccc1C(=O)N[C@@H]1CCC[C@H]1c1ccc(F)c(F)c1` (relative stereo) [Example 110] stands 3.31^[b].
Consider `Cn1cccc1C(=O)N[C@@H]1CCC[C@@H]1c1ccc(F)c(F)c1` (relative stereo) [Example 111], for which the logP was 3.13^[b].
Take `Cc1oncc1C(=O)N[C@@H]1CCC[C@@H]1c1ccc(F)c(F)c1` (relative stereo) [Example 112]: the logP is 2.73^[b].
With `Cn1cc(C(=O)N[C@@H]2CCC[C@@H]2c2ccc(F)c(F)c2)c(=O)[nH]1` (relative stereo) [Example 113], the logP was 2.00^[b].
Under `CCc1ccccc1C(=O)N[C@@H]1CCC[C@@H]1c1ccc(F)c(F)c1` (relative stereo) [Example 114] stands 3.75^[b].

(Values after patent US20160075653A1, “NEMATICIDAL N-(PHENYLCYCLOALKYL)CARBOXAMIDES AND N-(PHENYLCYCLOALKYL)THIOCARBOXAMIDES” (BAYER CROPSCIENCE AKTIENGESELLSCHAFT, priority 2013, published 2016).)
